In general, IC50 refers to the concentration needed to halve the response being measured. Low readings indicate higher potency, high ones lower potency.

We go through two compounds from patent US20240279226A1, “ERGOLINE-DERIVED AGONISTS OF THE 5-HT2A RECEPTOR” (priority 2021, published 2024).

Assay [1] has as its target 5-HT2A receptor (Homo sapiens (Human), UniProt P28223). The experiment in a line: biochemical. Type of assay: binding. The note with it: radioligand [3H]-ketanserin, cell membrane, 27° C. 90 min.
Experimental: Compound binding was calculated as a % inhibition of the binding of a radioactively labeled ligand specific for each receptor. Results with inhibition >50% were considered to represent significant effects. In each experiment, the respective reference compound was tested in parallel with the test compounds, and the data were compared with previous values determined at Eurofins.
Bovine Serum Albumin (BSA), calcium chloride (CaCl2)), and polyethylenimine, branched (PEI) were purchased from Sigma. Tris(hydroxymethl)aminomethane (Tris) was purchased from Alfa Aesar.
Microbeta^2 microplate counter, MicroBeta Filtermate-96, and UniFilter-96 GF/C were purchased from PerkinElmer. TopSeal was purchased from Biotss. Seven Compact pH meter was purchased from Mettler Toledo. Ultrapure water meter was purchased from Sichuan Ulupure. Benchtop Centrifuge was purchased from Hunan Xiangyi. Microplate shaker was purchased from Allsheng. 384-Well Polypropylene Microplate was purchased from Labcyte. 96 round well plate was purchased from Corning. 96 round deep well plate was purchased from Axygen. Echo was purchased from LABCYTE. • 1. Prepare the assay buffer following the table below:
• 2. […] Read the plate by using a Microbeta^2 microplate counter.
• 11. […] The IC50 is determined by fitting percentage of inhibition function of compound concentrations with Hill equation using XLfit.
Assay [2] has as its target 5-HT2C receptor (Homo sapiens (Human), UniProt P28335). In words: biochemical. Type of assay: binding. The note with it: radioligand [3H]-Mesulergine, cell membrane, 27° C. 60 min.

5-HT2C receptor, sequence (P28335 33-458 limits assumed): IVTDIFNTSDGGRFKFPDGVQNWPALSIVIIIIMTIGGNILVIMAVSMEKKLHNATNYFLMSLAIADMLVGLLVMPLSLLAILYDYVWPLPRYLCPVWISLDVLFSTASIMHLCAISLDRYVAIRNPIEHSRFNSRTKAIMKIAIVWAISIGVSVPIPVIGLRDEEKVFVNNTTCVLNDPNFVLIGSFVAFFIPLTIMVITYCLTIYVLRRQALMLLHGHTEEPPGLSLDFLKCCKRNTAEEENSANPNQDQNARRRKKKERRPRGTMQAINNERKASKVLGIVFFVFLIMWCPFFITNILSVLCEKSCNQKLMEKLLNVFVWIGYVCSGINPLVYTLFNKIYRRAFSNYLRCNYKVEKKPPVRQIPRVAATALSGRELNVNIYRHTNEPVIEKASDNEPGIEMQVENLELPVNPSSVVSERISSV

For the compound `[2H]C([2H])([2H])N1C[C@@H](NC(=O)N(CC)OC)C=C2c3cccc4[nH]cc(c34)C[C@H]21` [Example 6a, 1-ethyl-1-methoxy-3-((6aR,9S)-7-(methyl-d3)-4,6,6a,7,8,9-hexahydroindolo[4,3-fg]quinolin-9-yl)urea], the IC50 in assay [1] was determined as 2.6 nM; in assay [2], 96 nM.
As to `[2H]C([2H])([2H])N1C[C@H](NC(=O)N(CC)OC)C=C2c3cccc4[nH]cc(c34)C[C@H]21` [Example 6b, 1-ethyl-1-methoxy-3-((6aR,9R)-7-(methyl-d3)-4,6,6a,7,8,9-hexahydroindolo[4,3-fg]quinolin-9-yl) urea], the figures for the half-inhibitory concentration (IC50) in assay [1] and in assay [2] were 6.5 nM and 312 nM, respectively.
